# Assay results: ChEMBL document CHEMBL1149406, “Isolation and cholinesterase-inhibition studies of sterols from Haloxylon recurvum” (Bioorg Med Chem Lett, 2006)
# How the values were obtained:
# [1] = molecular target: Acetylcholinesterase (Electrophorus electricus, UniProt O42275); experiment: Inhibitory activity against AChE from electric eel
# [2] = molecular target: Butyrylcholinesterase (Equus caballus, UniProt Q9N1N9); experiment: Inhibitory activity against BuChE from horse serum
# Sequence of Butyrylcholinesterase (Q9N1N9 whole entry): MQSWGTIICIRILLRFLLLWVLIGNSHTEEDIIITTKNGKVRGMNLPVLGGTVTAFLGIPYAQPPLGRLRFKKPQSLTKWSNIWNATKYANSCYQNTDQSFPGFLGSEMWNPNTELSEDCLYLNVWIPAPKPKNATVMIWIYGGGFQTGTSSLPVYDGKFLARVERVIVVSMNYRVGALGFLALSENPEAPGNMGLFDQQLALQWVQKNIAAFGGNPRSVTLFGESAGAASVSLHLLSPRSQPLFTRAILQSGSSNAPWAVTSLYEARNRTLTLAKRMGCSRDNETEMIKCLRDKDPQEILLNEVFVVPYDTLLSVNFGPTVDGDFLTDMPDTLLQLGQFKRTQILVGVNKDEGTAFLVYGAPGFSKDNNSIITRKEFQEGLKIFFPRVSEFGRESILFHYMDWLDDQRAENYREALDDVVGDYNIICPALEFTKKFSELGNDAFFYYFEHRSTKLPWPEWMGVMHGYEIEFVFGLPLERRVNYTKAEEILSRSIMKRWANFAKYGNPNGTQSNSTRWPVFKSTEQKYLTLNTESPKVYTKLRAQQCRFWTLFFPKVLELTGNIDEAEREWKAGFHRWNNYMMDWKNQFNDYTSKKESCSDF
# Sequence of Acetylcholinesterase (O42275 whole entry): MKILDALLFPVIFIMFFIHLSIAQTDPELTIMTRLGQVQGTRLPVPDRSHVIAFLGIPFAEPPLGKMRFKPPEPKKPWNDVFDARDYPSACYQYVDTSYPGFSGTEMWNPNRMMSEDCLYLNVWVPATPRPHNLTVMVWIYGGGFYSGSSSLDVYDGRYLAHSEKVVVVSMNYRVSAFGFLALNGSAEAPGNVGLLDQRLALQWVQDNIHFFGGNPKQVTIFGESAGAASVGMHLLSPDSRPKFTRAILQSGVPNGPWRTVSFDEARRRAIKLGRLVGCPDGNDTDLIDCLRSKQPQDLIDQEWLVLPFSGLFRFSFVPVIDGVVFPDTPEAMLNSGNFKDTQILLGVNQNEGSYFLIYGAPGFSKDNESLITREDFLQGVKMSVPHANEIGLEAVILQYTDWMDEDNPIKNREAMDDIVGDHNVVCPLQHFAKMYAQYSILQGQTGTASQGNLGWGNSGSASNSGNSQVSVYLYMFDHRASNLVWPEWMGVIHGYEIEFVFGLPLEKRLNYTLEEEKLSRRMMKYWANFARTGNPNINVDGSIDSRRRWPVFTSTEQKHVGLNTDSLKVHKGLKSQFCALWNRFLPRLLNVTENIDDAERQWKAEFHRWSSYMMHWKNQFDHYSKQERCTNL
SMILES,IC50 [1],Ki [1],IC50 [2],Ki [2]
CC[C@H](C[C@@H](O)[C@@H](C)[C@H]1CCC2C3CC=C4C[C@@H](O)C[C@H](O)[C@]4(C)C3CC[C@@]21C)C(C)C (some centres undefined) [HALOXYSTEROL A],8.3 µM,7.6 µM,4.7 µM,4.5 µM
CC[C@H](/C=C/[C@@H](C)[C@H]1CC[C@H]2[C@@H]3C=CC4C[C@@H](O)CC[C@]4(C)C3=CC[C@]12C)C(C)C (some centres undefined),19.2 µM,20.6 µM,4.5 µM,4.6 µM
CC[C@H](/C=C/[C@@H](C)[C@H]1CC[C@@H]2[C@]1(C)CC=C1[C@]23C=C[C@]2(C[C@@H](O)CC[C@]12C)OO3)C(C)C,26.4 µM,25.5 µM,6.9 µM,5 µM
CC[C@H](CC[C@@H](C)[C@H]1CC[C@H]2[C@@H]3CCC4=C[C@@H](O)CC[C@]4(C)[C@H]3CC[C@]12C)C(C)C [LAWSARITOL],15.2 µM,16.1 µM,3.9 µM,3.7 µM
CCC(CC[C@@H](C)[C@H]1CC[C@H]2[C@@H]3C=CC4(O)C[C@@H](O)CC[C@]4(C)[C@H]3CC[C@]12C)C(C)C (some centres undefined),–,4 µM,–,4.2 µM
CC[C@H](C[C@@H](O)[C@@H](C)[C@H]1CCC2C3C=CC4=C[C@@H](O)C[C@H](O)[C@]4(C)C3CC[C@@]21C)C(C)C (some centres undefined) [HALOXYSTEROL B],0.89 µM,0.85 µM,2.3 µM,2.5 µM
CCC(CC[C@@H](C)[C@H]1CC[C@H]2C3=CC(O)C4(O)C[C@@H](O)CC[C@]4(C)[C@H]3CC[C@]12C)C(C)C (some centres undefined),13.7 µM,12.6 µM,2 µM,2.5 µM
CC[C@H](C[C@@H](O)[C@@H](C)[C@H]1CC[C@H]2[C@@H]3C[C@@H](O)[C@@]4(O)C[C@@H](O)C[C@H](O)[C@]4(C)[C@H]3CC[C@]12C)C(C)C,17.2 µM,17 µM,2.5 µM,2.2 µM
CC[C@H](C[C@@H](O)[C@@H](C)[C@H]1CCC2C3CCC4=CC(=O)CC[C@]4(C)C3=CC[C@@]21C)C(C)C (some centres undefined) [HALOXYSTEROL C],1 µM,1.1 µM,17.8 µM,18 µM
